Experiments:
Type in all cases: ADME
[1] = (§1) The drug is tested on Blautia hansenii strain: DSM20583 for biotransformation under anaerobic condition. The drug concentrations were measured over 6 timepoints collected between 0 and 12 hours of incubation by liquid-chromatography-coupled mass spectrometry (LC–MS); design: dose 5 uM, timepoint 0, 1.5, 3, 6, 9, 12 hours; details: 5 µM
[2] = as §1, with “the gut metagenome community of A-05 with ENA study accession number: PRJEB31790” for “Blautia hansenii strain: DSM20583”, “7” for “6”; design: dose 5 uM, timepoint 0, 0.75, 1.5, 3, 6, 9, 12 hours; details: 5 µM
[3] = as §1, with “the gut metagenome community of A-07 with ENA study accession number: PRJEB31790” for “Blautia hansenii strain: DSM20583”, “7” for “6”; design: dose 5 uM, timepoint 0, 0.75, 1.5, 3, 6, 9, 12 hours; details: 5 µM
[4] = The drug is tested on Bacteroides fragilis strain: DSM2151 for biotransformation under anaerobic condition. The drug concentrations were measured over 6 timepoints collected between 0 and 12 hours of incubation by liquid-chromatography-coupled mass spectrometry (LC–MS); design: dose 5 uM, timepoint 0, 1.5, 3, 6, 9, 12 hours; details: 5 µM
[5] = The drug is tested on Lactobacillus ruminis strain: ATCC25644 for biotransformation under anaerobic condition. The drug concentrations were measured over 6 timepoints collected between 0 and 12 hours of incubation by liquid-chromatography-coupled mass spectrometry (LC–MS); design: dose 5 uM, timepoint 0, 1.5, 3, 6, 9, 12 hours; details: ligilactobacillus ruminis, 5 µM
[6] = (§2) The drug is tested on Gemella haemolysans strain: DSM107751 for biotransformation under microaerobic condition. The drug concentrations were measured over 6 timepoints collected between 0 and 12 hours of incubation by liquid-chromatography-coupled mass spectrometry (LC–MS); design: dose 5 uM, timepoint 0, 1.5, 3, 6, 9, 12 hours; details: 5 µM
[7] = as §1, with “the gut metagenome community of A-01 with ENA study accession number: PRJEB31790” for “Blautia hansenii strain: DSM20583”, “7” for “6”; design: dose 5 uM, timepoint 0, 0.75, 1.5, 3, 6, 9, 12 hours; details: 5 µM
[8] = The drug is tested on Bacteroides ovatus strain: ATCC 8483 for biotransformation under anaerobic condition. The drug concentrations were measured over 6 timepoints collected between 0 and 12 hours of incubation by liquid-chromatography-coupled mass spectrometry (LC–MS); design: dose 5 uM, timepoint 0, 1.5, 3, 6, 9, 12 hours; details: 5 µM
[9] = as §1, with “the gut metagenome community of A-08 with ENA study accession number: PRJEB31790” for “Blautia hansenii strain: DSM20583”, “7” for “6”; design: dose 5 uM, timepoint 0, 0.75, 1.5, 3, 6, 9, 12 hours; details: 5 µM
[10] = The drug is tested on Lactobacillus fermentum strain: DSM20052 for biotransformation under anaerobic condition. The drug concentrations were measured over 6 timepoints collected between 0 and 12 hours of incubation by liquid-chromatography-coupled mass spectrometry (LC–MS); design: dose 5 uM, timepoint 0, 1.5, 3, 6, 9, 12 hours; details: limosilactobacillus fermentum, 5 µM
[11] = as §1, with “the gut metagenome community of P-04 with ENA study accession number: PRJEB31790” for “Blautia hansenii strain: DSM20583”, “7” for “6”; design: dose 5 uM, timepoint 0, 0.75, 1.5, 3, 6, 9, 12 hours; details: 5 µM
[12] = as §2, with “the gut metagenome community of A-05 with ENA study accession number: PRJEB31790” for “Gemella haemolysans strain: DSM107751”, “7” for “6”; design: dose 5 uM, timepoint 0, 0.75, 1.5, 3, 6, 9, 12 hours; details: 5 µM
[13] = The drug is tested on Eubacterium rectale strain: DSM17629 for biotransformation under anaerobic condition. The drug concentrations were measured over 6 timepoints collected between 0 and 12 hours of incubation by liquid-chromatography-coupled mass spectrometry (LC–MS); design: dose 5 uM, timepoint 0, 1.5, 3, 6, 9, 12 hours; details: agathobacter rectalis, 5 µM
[14] = The drug is tested on Alloscardovia omnicolens strain: DSM21503 for biotransformation under microaerobic condition. The drug concentrations were measured over 6 timepoints collected between 0 and 12 hours of incubation by liquid-chromatography-coupled mass spectrometry (LC–MS); design: dose 5 uM, timepoint 0, 1.5, 3, 6, 9, 12 hours; details: 5 µM
[15] = The drug is tested on Lactobacillus fermentum strain: DSM20052 for biotransformation under microaerobic condition. The drug concentrations were measured over 6 timepoints collected between 0 and 12 hours of incubation by liquid-chromatography-coupled mass spectrometry (LC–MS); design: dose 5 uM, timepoint 0, 1.5, 3, 6, 9, 12 hours; details: limosilactobacillus fermentum, 5 µM
[16] = as §2, with “the gut metagenome community of A-06 with ENA study accession number: PRJEB31790” for “Gemella haemolysans strain: DSM107751”, “7” for “6”; design: dose 5 uM, timepoint 0, 0.75, 1.5, 3, 6, 9, 12 hours; details: 5 µM
[17] = The drug is tested on Clostridium scindens strain: DSM5676 for biotransformation under anaerobic condition. The drug concentrations were measured over 6 timepoints collected between 0 and 12 hours of incubation by liquid-chromatography-coupled mass spectrometry (LC–MS); design: dose 5 uM, timepoint 0, 1.5, 3, 6, 9, 12 hours; details: 5 µM
[18] = The drug is tested on Capnocytophaga ochracea strain: DSM7271 for biotransformation under microaerobic condition. The drug concentrations were measured over 6 timepoints collected between 0 and 12 hours of incubation by liquid-chromatography-coupled mass spectrometry (LC–MS); design: dose 5 uM, timepoint 0, 1.5, 3, 6, 9, 12 hours; details: 5 µM
[19] = The drug is tested on Bacteroides uniformis strain: DSM6597 for biotransformation under anaerobic condition. The drug concentrations were measured over 6 timepoints collected between 0 and 12 hours of incubation by liquid-chromatography-coupled mass spectrometry (LC–MS); design: dose 5 uM, timepoint 0, 1.5, 3, 6, 9, 12 hours; details: 5 µM
[20] = as §2, with “the gut metagenome community of A-01 with ENA study accession number: PRJEB31790” for “Gemella haemolysans strain: DSM107751”, “7” for “6”; design: dose 5 uM, timepoint 0, 0.75, 1.5, 3, 6, 9, 12 hours; details: 5 µM
[21] = The drug is tested on Enterococcus faecalis strain: ATCC29212 for biotransformation under microaerobic condition. The drug concentrations were measured over 6 timepoints collected between 0 and 12 hours of incubation by liquid-chromatography-coupled mass spectrometry (LC–MS); design: dose 5 uM, timepoint 0, 1.5, 3, 6, 9, 12 hours; details: 5 µM
[22] = The drug is tested on Streptococcus anginosus strain: DSM20563 for biotransformation under microaerobic condition. The drug concentrations were measured over 6 timepoints collected between 0 and 12 hours of incubation by liquid-chromatography-coupled mass spectrometry (LC–MS); design: dose 5 uM, timepoint 0, 1.5, 3, 6, 9, 12 hours; details: 5 µM
[23] = The drug is tested on Collinsella aerofaciens strain: DSM3979 for biotransformation under anaerobic condition. The drug concentrations were measured over 6 timepoints collected between 0 and 12 hours of incubation by liquid-chromatography-coupled mass spectrometry (LC–MS); design: dose 5 uM, timepoint 0, 1.5, 3, 6, 9, 12 hours; details: 5 µM
[24] = The drug is tested on Actinomyces naeslundi strain: DSM43013 for biotransformation under microaerobic condition. The drug concentrations were measured over 6 timepoints collected between 0 and 12 hours of incubation by liquid-chromatography-coupled mass spectrometry (LC–MS); design: dose 5 uM, timepoint 0, 1.5, 3, 6, 9, 12 hours; details: actinomyces naeslundii, 5 µM
[25] = as §2, with “the gut metagenome community of A-03 with ENA study accession number: PRJEB31790” for “Gemella haemolysans strain: DSM107751”, “7” for “6”; design: dose 5 uM, timepoint 0, 0.75, 1.5, 3, 6, 9, 12 hours; details: 5 µM
[26] = as §2, with “the gut metagenome community of P-02 with ENA study accession number: PRJEB31790” for “Gemella haemolysans strain: DSM107751”, “7” for “6”; design: dose 5 uM, timepoint 0, 0.75, 1.5, 3, 6, 9, 12 hours; details: 5 µM
[27] = The drug is tested on Streptococcus sanguinis strain: DSM20567 for biotransformation under microaerobic condition. The drug concentrations were measured over 6 timepoints collected between 0 and 12 hours of incubation by liquid-chromatography-coupled mass spectrometry (LC–MS); design: dose 5 uM, timepoint 0, 1.5, 3, 6, 9, 12 hours; details: 5 µM
[28] = The drug is tested on Lactobacillus reuteri strain: DSM20016 for biotransformation under microaerobic condition. The drug concentrations were measured over 6 timepoints collected between 0 and 12 hours of incubation by liquid-chromatography-coupled mass spectrometry (LC–MS); design: dose 5 uM, timepoint 0, 1.5, 3, 6, 9, 12 hours; details: limosilactobacillus reuteri, 5 µM
[29] = The drug is tested on Bacteroides caccae strain: DSM19024 for biotransformation under anaerobic condition. The drug concentrations were measured over 6 timepoints collected between 0 and 12 hours of incubation by liquid-chromatography-coupled mass spectrometry (LC–MS); design: dose 5 uM, timepoint 0, 1.5, 3, 6, 9, 12 hours; details: 5 µM
[30] = as §1, with “the gut metagenome community of A-09 with ENA study accession number: PRJEB31790” for “Blautia hansenii strain: DSM20583”, “7” for “6”; design: dose 5 uM, timepoint 0, 0.75, 1.5, 3, 6, 9, 12 hours; details: 5 µM

CCOC(=O)[C@H](CCc1ccccc1)N[C@@H](C)C(=O)N1[C@H](C(=O)O)C[C@@H]2CCC[C@@H]21
Bacterial Biotransformation [1]: Compound NOT metabolized | Bacterial Biotransformation [2]: Compound NOT metabolized | Bacterial Biotransformation [3]: Compound NOT metabolized | Bacterial Biotransformation [4]: Compound NOT metabolized | Bacterial Biotransformation [5]: Compound NOT metabolized | Bacterial Biotransformation [6]: Compound NOT metabolized | Bacterial Biotransformation [7]: Compound NOT metabolized | Bacterial Biotransformation [8]: Compound NOT metabolized | Bacterial Biotransformation [9]: Compound NOT metabolized | Bacterial Biotransformation [10]: Compound metabolized | Bacterial Biotransformation [11]: Compound NOT metabolized | Bacterial Biotransformation [12]: Compound NOT metabolized | Bacterial Biotransformation [13]: Compound NOT metabolized | Bacterial Biotransformation [14]: Compound NOT metabolized | Bacterial Biotransformation [15]: Compound NOT metabolized | Bacterial Biotransformation [16]: Compound NOT metabolized | Bacterial Biotransformation [17]: Compound NOT metabolized | Bacterial Biotransformation [18]: Compound NOT metabolized | Bacterial Biotransformation [19]: Compound NOT metabolized | Bacterial Biotransformation [20]: Compound NOT metabolized | Bacterial Biotransformation [21]: Compound NOT metabolized | Bacterial Biotransformation [22]: Compound NOT metabolized | Bacterial Biotransformation [23]: Compound NOT metabolized | Bacterial Biotransformation [24]: Compound NOT metabolized | Bacterial Biotransformation [25]: Compound NOT metabolized | Bacterial Biotransformation [26]: Compound NOT metabolized | Bacterial Biotransformation [27]: Compound NOT metabolized | Bacterial Biotransformation [28]: Compound NOT metabolized | Bacterial Biotransformation [29]: Compound NOT metabolized | Bacterial Biotransformation [30]: Compound NOT metabolized

C[C@@H](NCCCc1cccc(C(F)(F)F)c1)c1cccc2ccccc12
Bacterial Biotransformation [1]: Compound NOT metabolized | Bacterial Biotransformation [2]: Compound NOT metabolized | Bacterial Biotransformation [3]: Compound NOT metabolized | Bacterial Biotransformation [4]: Compound NOT metabolized | Bacterial Biotransformation [5]: Compound NOT metabolized | Bacterial Biotransformation [6]: Compound NOT metabolized | Bacterial Biotransformation [7]: Compound NOT metabolized | Bacterial Biotransformation [8]: Compound NOT metabolized | Bacterial Biotransformation [9]: Compound NOT metabolized | Bacterial Biotransformation [10]: Compound NOT metabolized | Bacterial Biotransformation [11]: Compound NOT metabolized | Bacterial Biotransformation [12]: Compound NOT metabolized | Bacterial Biotransformation [13]: Compound NOT metabolized | Bacterial Biotransformation [14]: Compound NOT metabolized | Bacterial Biotransformation [15]: Compound NOT metabolized | Bacterial Biotransformation [16]: Compound NOT metabolized | Bacterial Biotransformation [17]: Compound NOT metabolized | Bacterial Biotransformation [18]: Compound NOT metabolized | Bacterial Biotransformation [19]: Compound NOT metabolized | Bacterial Biotransformation [20]: Compound NOT metabolized | Bacterial Biotransformation [21]: Compound NOT metabolized | Bacterial Biotransformation [22]: Compound NOT metabolized | Bacterial Biotransformation [23]: Compound NOT metabolized | Bacterial Biotransformation [24]: Compound NOT metabolized | Bacterial Biotransformation [25]: Compound NOT metabolized | Bacterial Biotransformation [26]: Compound NOT metabolized | Bacterial Biotransformation [27]: Compound NOT metabolized | Bacterial Biotransformation [28]: Compound NOT metabolized | Bacterial Biotransformation [29]: Compound NOT metabolized | Bacterial Biotransformation [30]: Compound NOT metabolized

CC(C)NCC(O)COc1ccc(CC(N)=O)cc1 (stereo not given) [ATENOLOL]
Bacterial Biotransformation [1]: Compound NOT metabolized | Bacterial Biotransformation [2]: Compound NOT metabolized | Bacterial Biotransformation [3]: Compound NOT metabolized | Bacterial Biotransformation [4]: Compound NOT metabolized | Bacterial Biotransformation [5]: Compound NOT metabolized | Bacterial Biotransformation [6]: Compound NOT metabolized | Bacterial Biotransformation [7]: Compound NOT metabolized | Bacterial Biotransformation [8]: Compound NOT metabolized | Bacterial Biotransformation [9]: Compound NOT metabolized | Bacterial Biotransformation [10]: Compound NOT metabolized | Bacterial Biotransformation [11]: Compound NOT metabolized | Bacterial Biotransformation [12]: Compound NOT metabolized | Bacterial Biotransformation [13]: Compound NOT metabolized | Bacterial Biotransformation [14]: Compound NOT metabolized | Bacterial Biotransformation [15]: Compound NOT metabolized | Bacterial Biotransformation [16]: Compound NOT metabolized | Bacterial Biotransformation [17]: Compound NOT metabolized | Bacterial Biotransformation [18]: Compound NOT metabolized | Bacterial Biotransformation [19]: Compound NOT metabolized | Bacterial Biotransformation [20]: Compound NOT metabolized | Bacterial Biotransformation [21]: Compound NOT metabolized | Bacterial Biotransformation [22]: Compound NOT metabolized | Bacterial Biotransformation [23]: Compound NOT metabolized | Bacterial Biotransformation [24]: Compound NOT metabolized | Bacterial Biotransformation [25]: Compound NOT metabolized | Bacterial Biotransformation [26]: Compound NOT metabolized | Bacterial Biotransformation [27]: Compound NOT metabolized | Bacterial Biotransformation [28]: Compound NOT metabolized | Bacterial Biotransformation [29]: Compound NOT metabolized | Bacterial Biotransformation [30]: Compound NOT metabolized

From ChEMBL document CHEMBL5724806, “Unraveling interindividual differences and functional consequences of gut microbial metabolism of immunosuppressants” (2024)
